Experimental findings from patent US20230142274A1 (SIMCERE PHARMACEUTICAL CO., LTD., priority 2020, published 2023) are described below.

The nature of data set [1]: Metabolic stability in liver microsomes (CD-1 mouse). In kind it is in vitro ADME. The conditions noted are these: CD-1 mouse liver microsomes 0.5 mg/mL, compound 1 μM, NADPH 1 mM, 37° C.; for half-life at 1 μM: pH 7.4. The procedure: (§1) 1. Source of liver microsomes: human liver microsomes (Corning 452117), CD-1 mouse liver microsomes (XENOTECH M1000)
(§2) 1. Formulation of 100 mM phosphate buffer solution (PBS): 7.098 g of Na2HPO4 was weighed and ultrasonically dissolved in 500 mL of pure water to form Solution A. 3.400 g of KH2PO4 was weighed and ultrasonically dissolved in 250 mL of pure water to form Solution B. Solution A was placed in a stirrer and Solution B was slowly added until the pH value reached 7.4, thus formulating 100 mM PBS buffer solution.
(§3) The reaction system was formulated according to Table 3 below.
(§4) 3. The reaction system was placed in a water bath at 37° C. and pre-incubated for 10 minutes. 40 μL of 10 mM NADPH solution (NADPH was dissolved in 100 mM phosphate buffer solution) was added into the reaction system, and the final concentration of NADPH was 1 mM. 40 μL of Phosphate buffer solution was used instead of the NADPH solution as a negative control. The negative control was used to rule out the influence caused by the chemical stability of the compounds per se.
(§5) 4. The reaction system was added with 4 μL of 100 μM the compound of the present disclosure and Verapamil (the positive control compound) (DMSO as the vehicle), so that the reaction was initiated. The final concentration of the compound was 1 μM.
(§6) 5. At 0.5, 15, 30, 45 and 60 minutes, after being well mixed in a vortex oscillator, 50 μL of the incubated samples were taken out respectively, and the reaction was terminated with ice acetonitrile (4-fold) containing an internal standard. The samples were centrifuged at 3220 g for 45 minutes. After the centrifugation, 90 μL of the supernatants were transferred to a sample plate and mixed well with 90 μL of ultrapure water for LC-MS/MS analysis.
(§7) All data were calculated by Microsoft Excel software. Peak areas were determined from the extracted ion chromatograms. The in-vitro half-life (t1/2) of the parent drug was determined by the linear fitting of the natural logarithm of the elimination percentage of the parent drug versus time.
(§8) The in-vitro half-life (t1/2) was calculated from the slope: […]

Data set [2] is described as follows: Metabolic stability in liver microsomes (human). The data set is classed as in vitro ADME. To be noted: Human being liver microsomes 0.5 mg/mL, compound 1 μM, NADPH 1 mM, 37° C.; for half-life at 1 μM: pH 7.4. The procedure:
as §1, §2, §3, §4, §5, §6, §7, §8
A general note: Liver microsomes are a subcellular fraction often used to study metabolism.

The subject of the next data set is WI-38 cells. As to the kind of experiment: Inhibition of human WI-38 embryonic lung cell proliferation (Cell-Titer Glo). The data set is classed as cell-based. To be noted: Homo sapiens, 72 h, 3 days incubation, read-out: Anti-Proliferative Activity Against WI-38 cells IC50. Put shortly: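 WI-38 cells in EMEM with 10% FBS, seeded 24 h, then exposed to 10-point 3-fold compound dilutions (0.25% DMSO final) for 3 days at 37 °C, 5% CO2. Viability from intracellular ATP by Cell-Titer Glo luminescence; % inhibition normalised to top/bottom signals and IC50 fitted.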

For `COc1ccc(-c2ccc(-c3cnc([C@H]4CC[C@H](NC(=O)OC(C)C)CC4)s3)c([S@@](=N)(=O)C3CC3)c2)cn1` (stereo in doubt) [Example 94], the t1/2 in data set [1] was 3.4 h; in data set [2] it was 3.85 h.

By half-life is commonly meant the time in which the quantity being followed falls by half. Higher therefore signals slow loss. The term IC50 denotes the concentration at which inhibition is half-maximal. For the compound `CC(C)OC(=O)NC1CCC(c2ncc(-c3ccc(Nc4ccc(F)cn4)cc3S(=N)(=O)C3CC3)s2)CC1` (stereo not drawn) [Example 81, isopropyl trans-N-[4-[5-[2-(cyclopropylsulfonimidoyl)]-4-[(5-fluoro-2-pyridyl)amino]phenyl]thiazol-2-yl]cyclohexyl]carbamate], the results for the half-life at 1 μM in data set [1] and in data set [2] were 3.5 h and 5.32 h, respectively. In addition, the IC50 in the data set on WI-38 cells was 14 µM.

As for `CC(C)OC(=O)N[C@H]1CC[C@H](c2ncc(-c3ccc(Nc4n[nH]c5ccccc45)cc3S(=O)(=O)C3CC3)s2)CC1` [Example 56, isopropyl trans-(4-(5-(4-((1H-indazol-3-yl)amino)-2-(cyclopropylsulfonyl)phenyl)thiazol-2-yl)cyclohexyl)carbamate], the half-life at 1 μM in data set [1] is 1.82 h; in data set [2], 2.98 h. Besides, in the data set on WI-38 cells, the IC50 was greater than 25 µM.

Regarding `CC(C)OC(=O)Nc1ccc(-c2cnc(C3CCC(NC(=O)OC(C)C)CC3)s2)c(S(=N)(=O)C(C)C)c1` (stereo not drawn) [Example 3, isopropyl trans-N-[4-[2-[4-(isopropoxycarbonylamino)cyclohexyl]thiazol-5-yl]-3-(isopropylsulfonimidoyl)phenyl]carbamate], the results for the half-life at 1 μM in data set [1] and in data set [2] were greater than 8.33 h and 7.95 h, respectively. The IC50 with WI-38 cells is greater than 25 µM.

For the compound `Cc1cc(Nc2ccc(-c3cnc([C@H]4CC[C@H](NC(=O)OC(C)C)CC4)s3)c(S(=O)(=O)C3CC3)c2)n[nH]1` [Example 48, isopropyl trans-(4-(5-(2-(cyclopropylsulfonyl)-4-((5-methyl-1H-pyrazol-3-yl)amino)phenyl)thiazol-2-yl)cyclohexyl)carbamate], the results for the half-life at 1 μM in data set [1] and in data set [2] were 7.2 h and greater than 8.33 h, respectively. Moreover, in the data set with WI-38 cells, the half-maximal inhibitory concentration (IC50) is 15.6 µM.

As for `CC(C)OC(=O)N[C@H]1CC[C@H](c2ncc(-c3ccc(NC(=O)NCc4ccccc4)cc3S(=N)(=O)C3CC3)s2)CC1` (stereo partly drawn) [Example 65, isopropyl trans-(4-(5-(4-(3-benzylureido)-2-(cyclopropanesulfonimidoyl)phenyl)thiazol-2-yl)cyclohexyl)carbamate], the half-life at 1 μM in data set [1] stood at 1.33 h; in data set [2], 1.85 h. Besides, the half-inhibitory concentration (IC50) in the data set with WI-38 cells is greater than 25 µM.

In the case of `Cc1cc(Nc2ccc(-c3cnc([C@H]4CC[C@H](NC(=O)OC(C)C)CC4)s3)c(P3(=O)CCCC3)c2)n[nH]1` [Example 47, isopropyl trans-N-[4-[5-[4-[(5-methyl-1H-pyrazol-3-yl)amino]-2-(1-oxidophospholan-1-yl)phenyl]thiazol-2-yl]cyclohexyl]carbamate], the half-life at 1 μM in data set [1] was determined as 7.28 h; in data set [2] it was 5.05 h. Besides, the IC50 in the data set on WI-38 cells was greater than 25 µM.

In the case of `CC(C)OC(=O)Nc1ccc(-c2cnc([C@H]3CC[C@H](NC(=O)OC(C)C)CC3)s2)c(S(=N)(=O)C2CC2)c1` (stereo partly drawn) [Example 68, isopropyl trans-N-[3-(cyclopropylsulfonimidoyl)-4-[2-[4-(isopropoxycarbonylamino)cyclohexyl]thiazol-5-yl]phenyl]carbamate], the half-life at 1 μM in data set [1] was found to be 2.82 h; in data set [2], 3.12 h. The 50% inhibitory concentration (IC50) with WI-38 cells was greater than 25 µM.

Regarding `Cc1cc(Nc2ccc(-c3cnc([C@H]4CC[C@H](NC(=O)OC(C)C)CC4)s3)c(S(=O)(=O)C3CC3)c2)nn1C` [Example 49, isopropyl trans-(4-(5-(2-(cyclopropylsulfonyl)-4-((1,5-dimethyl-1H-pyrazol-3-yl)amino)phenyl)thiazol-2-yl)cyclohexyl)carbamate], the half-life at 1 μM in data set [1] worked out at 2.08 h; in data set [2], 0.933 h. In addition, the IC50 with WI-38 cells is greater than 25 µM.

Take `CC(C)OC(=O)Nc1ccc(-c2cnc(C3CCC(NC(=O)OC(C)C)CC3)s2)c([S+]([O-])C(C)C)c1` (stereo not drawn) [Example 32, isopropyl trans-N-[4-[2-[4-(isopropoxycarbonylamino)cyclohexyl]thiazol-5-yl]-3-isopropylsulfinyl-phenyl]carbamate]: the half-life at 1 μM in data set [1] amounted to 2.7 h; in data set [2], 4.18 h. Besides, the half-maximal inhibitory concentration (IC50) in the data set on WI-38 cells was 23 µM.

With `Cc1cc(Nc2ccc(-c3cnc(C4CCC(NC(=O)OC(C)C)CC4)s3)c(S(=N)(=O)C3CC3)c2)n[nH]1` (stereo not drawn) [Example 50, isopropyl trans-N-[4-[5-[2-(cyclopropylsulfonimidoyl)-4-]((5-methyl-1H-pyrazol-3-yl)amino]phenyl]thiazol-2-yl]cyclohexyl]carbamate], the half-life at 1 μM in data set [1] worked out at 6.27 h; in data set [2], 7.92 h. Besides, the IC50 in the data set on WI-38 cells is greater than 25 µM.

With `CC(C)OC(=O)Nc1ccc(-c2cnc([C@H]3CC[C@H](NC(=O)OC(C)C)CC3)s2)c(S(=O)(=O)C(C)C)c1` [Example 2, isopropyl trans-N-[4-[2-[4-(isopropoxycarbonylamino)cyclohexyl]thiazol-5-yl]-3-isopropylsulfonyl-phenyl]carbamate], the half-life at 1 μM in data set [1] is 4.27 h; in data set [2], 2.42 h. Moreover, the IC50 in the data set with WI-38 cells is greater than 25 µM.

`Cc1cc(Nc2ccc(-c3cnc([C@H]4CC[C@H](NC(=O)OC(C)C)CC4)s3)c(S(=O)(=O)C3COC3)c2)n[nH]1` [Example 92, isopropyl trans-N-[4-[5-[4-[(5-methyl-1H-pyrazol-3-yl)amino]-2-(oxetan-3-ylsulfonyl)phenyl]thiazol-2-yl]cyclohexyl]carbamate]: the half-life at 1 μM is 5.77 h in data set [1] and 6.37 h in data set [2]. For the same compound, the IC50 in the data set with WI-38 cells is 19.5 µM.

On to `Cc1cc(Nc2ccc(-c3cnc([C@H]4CC[C@H](NC(=O)OC(C)C)CC4)s3)c(S(=N)(=O)C3CC3)c2)n(C)n1` (stereo partly drawn) [Example 98, isopropyl trans-(4-(5-(2-(cyclopropanesulfonimidoyl)-4-((1,3-dimethyl-1H-pyrazol-5-yl)amino)phenyl)thiazol-2-yl)cyclohexyl)carbamate], for which the results for the half-life at 1 μM in data set [1] and in data set [2] were greater than 8.33 h and 2.28 h, respectively. The IC50 in the data set on WI-38 cells is greater than 25 µM.

For `CC(C)OC(=O)N[C@H]1CC[C@H](c2ncc(-c3ccc(Nc4cc5ccccn5n4)cc3S(=O)(=O)C3CC3)s2)CC1` [Example 57, isopropyl trans-(4-(5-(2-(cyclopropylsulfonyl)-4-(pyrazolo[1,5-a]pyridin-2-ylamino)phenyl)thiazol-2-yl)cyclohexyl)carbamate], the half-life at 1 μM in data set [1] turned out to be 2.1 h; in data set [2] it was 0.933 h. In addition, in the data set with WI-38 cells, the half-maximal inhibitory concentration (IC50) is greater than 25 µM.

Turning to `CC(C)OC(=O)N[C@H]1CC[C@H](c2ncc(-c3ccc(Nc4cn(C)nn4)cc3S(=N)(=O)C3CC3)s2)CC1` (some centres unmarked) [Example 54], the half-life at 1 μM in data set [1] and in data set [2] was greater than 8.33 h throughout. The IC50 in the data set on WI-38 cells was greater than 25 µM.

As for `Cc1cc(Nc2ccc(-c3cnc([C@H]4CC[C@H](NC(=O)OC(C)C)CC4)s3)c(P3(=O)CCC3)c2)n[nH]1` [Example 103, isopropyl trans-(4-(5-(4-((5-methyl-1H-pyrazol-3-yl)amino)-2-(1-oxophosphetan-1-yl)phenyl)thiazol-2-yl)cyclohexyl)carbamate], the half-life at 1 μM in data set [1] and in data set [2] was greater than 8.33 h in each case. In addition, in the data set on WI-38 cells, the IC50 was greater than 25 µM.

`CC(C)OC(=O)Nc1ccc(-c2cnc([C@H]3CC[C@H](NC(=O)OC(C)C)CC3)s2)c(P(C)(C)=O)c1` [Example 1, isopropyl trans-N-[3-dimethylphosphoryl-4-[2-[4-(isopropoxycarbonylamino)cyclohexyl]thiazol-5-yl]phenyl]carbamate]: the half-life at 1 μM in data set [1] and in data set [2] was greater than 8.33 h each time. Moreover, in the data set on WI-38 cells, the IC50 was greater than 25 µM.

Take `CC(C)OC(=O)Nc1ccc(-c2cnc([C@H]3CC[C@H](NC(=O)OC(C)C)CC3)s2)c(S(=O)(=O)C2CC2)c1` [Example 33, isopropyl trans-N-[3-cyclopropylsulfonyl-4-[2-[4-(isopropoxycarbonylamino)cyclohexyl]thiazol-5-yl]phenyl]carbamate]: the results for the half-life at 1 μM in data set [1] and in data set [2] were 4.13 h and greater than 8.33 h, respectively. Moreover, in the data set with WI-38 cells, the half-inhibitory concentration (IC50) was greater than 25 µM.
